In brackets after ≈: the same amount, converted by molar mass. Where two headings read alike, the source gives them in different places.
How the values were obtained:
[1] = tested on: Aβ production in neuroblastoma SH-SY5Y cells (SH/APPwt); test: β-amyloid (Aβ) production inhibitory effect in cell: 384-well; type: cell-based; conditions: Homo sapiens, Assay format 384-well
Experimental: Neuroblastoma SH-SY5Y cells (SH/APPwt) with human wild-type β-APT excessively expressed therein were prepared at 4×10^5 cells/mL, and 50 μl portions thereof were inoculated into each well of a 384-well culture plate (Corning) added 0.5 μl of the test compound of the present invention (DMSO solution). The final DMSO concentration was 1%, and the amount of the cell culture was 50 μl. After the incubation was performed for 21 hours from the cell seeding, 5 μl of the culture supernatant was collected from each fraction. The amount of the Aβ in each fraction was measured.
The Aβ amount was measured as follows. 5 μl of a homogeneous time resolved fluoresrenee (HTRF) measurement reagent (Amyloid β1-40 peptide; CIS bio international) and 5 μl of the culture supernatant were put into a 384′well plate (a black plate: Corning) and mixed with each other, and then left standing overnight at 4° C. while the light was shielded. Then, the fluorescence intensity (620 nm and 665 nm) was measured with EnViston (Perkin Elmer life sciences).

CYP2C9 = target: T1, CYP2C9 (Homo sapiens, UniProt P11712); test: CYP inhibition test (CYP2C9); type: in vitro ADME; conditions: pooled human liver microsomes; tolbutamide methyl-hydroxylation
T1 construct: The commercially available pooled human liver microsomes are used as an enzyme resource; from tissue; host or cells: pooled human liver microsomes
From the text: (§1) The CYP inhibition test is a test to assess the inhibitory effect of a compound of the present invention towards typical substrate metabolism reactions on CYP enzymes in human liver microsomes. The marker reactions on human main five CYP enzymes (CYP1A2, 2C9, 2C19, 2D6, and 3A4) are used as follows: 7-ethoxyresorufin O-deethylation (CYP1A2), tolbutamide methyl-hydroxylation (CYP2C9), mephenytoin 4′-hydroxylation (CYP2C19), dextromethorphan O-demethylation (CYP2D6), and terfenadine hydroxylation (CYP3A4). The commercially available pooled human liver microsomes are used as an enzyme resource.
(§2) The reaction conditions were as follows: substrate, 0.5 μmol/L ethoxyresorufin (CYP1A2), 100 μmol/L tolbutamide (CYP2C9), 50 μmol/L, S-mephenytoin (CYP2C19), 5 μmol/L dextromethorphan (CYP2D6), 1 μmol/L terfenadine (CYP3A4): reaction time, 15 minutes: reaction temperature, 37° C.; enzyme, pooled human liver microsomes 0.2 mg protein/mL; concentrations of the compound of the present invention, 1, 5, 10, 20 μmol/L (four points).
(§3) Five kinds of substrates, human liver microsomes, and a compound solution of the present invention in […] Hepes buffer were added to a 96-well plate at the composition as described above as a reaction solution. NADPH as a cofactor was added to this 96-well plate in order to initiate metabolism reactions. After the incubation at 37° C.for […], a methanol/acetonitrile=1/1 (v/v) solution was added to stop the reaction. After the centrifugation at 3000 rpm for 15 minutes, resorufin (CYP1A2 metabolite) in the supernatant was quantified by a fluorescent plate reader, and hydroxytolbutamide (CYP2C9 metabolite), 4′-hydroxymephenytoin (CYP2C19 metabolite), dextrorphan (CYP2D6 metabolite), and terfenadine alcohol metabolite (CYP3A4 metabolite) in the supernatant were quantified by LC/MS/MS.
(§4) The sample adding DMSO to a reaction system instead of compound of the present invention solution was adopted as a control (100%) because DMSO was used as a solvent to dissolve a compound of the present invention. Remaining activity (%) was calculated at each concentration of a compound of the present invention, and IC50 value was calculated by reverse presumption by a logistic model using a concentration and an inhibition rate.

[2] = target: T2, human ether-a-go-go related gene (hERG) channel (Homo sapiens, UniProt Q12809); test: hERG test; type: cell-based; conditions: % inhibition of IKr tail peak current at 3 uM; CHO cells expressing hERG
T2 construct: expressed in transfected cells; host or cells: CHO cells
From the text: For the purpose of assessing risk of an electrocardiogram QT interval prolongation, effects on delayed rectifier K+ current (IKr), which plays an important role in the ventricular repolarization process of the compound of the present invention, was studied using CHO cells expressing human ether-a-go-go related gene (hERG) channel.
A cell was retained at a membrane potential of […] by whole cell patch clamp method using an automated patch clamp system (QPatch:Sophion Bioscience A/S). After application of leak potential at −50 mV, IKr induced by depolarization pulse stimulation at +20 mV for 2 seconds and, further, repolarization pulse stimulation at −50 mV for 2 seconds was recorded.

Solubility test = type: physicochemical; conditions: for solubility kinetic at 1 h: kinetic from dmso stock; for solubility kinetic at 16 h: solubility in JP 2nd fluid B, 1% DMSO, *2: shaken for 1 hour at room temperature
Experimental: A 10 mmol/L solution of the compound was prepared with DMSO, and 2 μL of the compound of the present invention solution was added, respectively, to 198 μL of JP 1st fluid (water was added to 2.0 g of sodium chloride and 7.0 ml, of hydrochloric acid to reach 1000 mL) and JP 2nd fluid (See Table 4). The mixture was left standing for 16 hours at 25° C. or shaken for 1 hour at ruom temperature, and the mixture was vacuum-filtered. The […] was ten or one hundred-fold diluted with metbanol/water=1/1 (v/v) or MeCN/MeOH/H2O(=1/1/2), and the compound concent ration in the filtrate was measured with LC/MS or solid phase extraction (SPE)/MS by the absolute calibration method.

CYP2D6 = target: T3, CYP2D6 (Homo sapiens, UniProt P10635); test: CYP inhibition test (CYP2D6); type: in vitro ADME; conditions: pooled human liver microsomes; dextromethorphan O-demethylation
T3 construct: The commercially available pooled human liver microsomes are used as an enzyme resource; from tissue; host or cells: pooled human liver microsomes
From the text: as §1, §2, §3, §4

CYP2C19 = target: T4, CYP2C19 (Homo sapiens, UniProt P33261); test: CYP inhibition test (CYP2C19); type: in vitro ADME; conditions: pooled human liver microsomes; mephenytoin 4′-hydroxylation
T4 construct: The commercially available pooled human liver microsomes are used as an enzyme resource; from tissue; host or cells: pooled human liver microsomes
From the text: as §1, §2, §3, §4

CYP1A2 = target: T5, CYP1A2 (Homo sapiens, UniProt P05177); test: CYP inhibition test (CYP1A2); type: in vitro ADME; conditions: pooled human liver microsomes; 7-ethoxyresorufin O-deethylation
T5 construct: The commercially available pooled human liver microsomes are used as an enzyme resource; from tissue; host or cells: pooled human liver microsomes
T5 sequence (P05177 1-516): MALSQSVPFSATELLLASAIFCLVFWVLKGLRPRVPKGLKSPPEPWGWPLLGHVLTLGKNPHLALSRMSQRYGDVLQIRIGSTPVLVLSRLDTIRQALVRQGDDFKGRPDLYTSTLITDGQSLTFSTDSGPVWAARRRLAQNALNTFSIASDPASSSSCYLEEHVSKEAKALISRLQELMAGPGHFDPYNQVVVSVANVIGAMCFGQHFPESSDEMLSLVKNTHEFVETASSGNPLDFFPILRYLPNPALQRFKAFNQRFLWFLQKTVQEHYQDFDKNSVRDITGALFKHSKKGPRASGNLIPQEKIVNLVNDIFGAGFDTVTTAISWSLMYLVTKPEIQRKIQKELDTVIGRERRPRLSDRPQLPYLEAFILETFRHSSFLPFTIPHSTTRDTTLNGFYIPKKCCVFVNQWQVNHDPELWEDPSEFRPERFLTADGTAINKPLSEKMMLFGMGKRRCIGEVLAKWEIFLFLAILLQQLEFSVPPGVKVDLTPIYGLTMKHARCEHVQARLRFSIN
From the text: as §1, §2, §3, §4

Recombinant human BACE1 = target: T6, Recombinant human BACE1 (Homo sapiens, UniProt P56817); test: Assay of BACE1 inhibitory activity: 384-well; type: biochemical; conditions: Assay format 384-well
T6 construct: purchased R&D Systems
Experimental: 5 μL of substrate peptide solution (Biotin-XSEVNLDAEFRHDSGC-Eu: X=ε-amino-n-capronic acid, Eu=Europium eryplate) was added to each well of 384-well plate (a black plate: Corning), and after addition of 0.1 μl of the compound of the present invention (DMSO solution) and 5 μl of Recombinant human BACE1 (R&D Systems), the reaction mixture was incubated at 25° C. for 2 hours. The substrate peptide was synthesized by reacting Cryptate TBPCOOH mono SMP (CIS bio international) with Biotin-XSEVNLDAEFRHDSGC (Peptide Institute, Inc.).
After the incubation for reaction, 10 μl of 8.0 μg/ml Streptavidin-XL665 (CIS bio International) dissolved in phosphate buffer (150 mmol/L K2HPO4-KH2PO4, pH 7.0, 0.008% Triton X-100, 0.8 mol/L KF) was added to each well and left stand at 25° C. for 30 minutes.

CYP3A4 = target: T7, CYP3A4 (Homo sapiens, UniProt P08684); test: CYP inhibition test (CYP3A4); type: in vitro ADME; conditions: pooled human liver microsomes; terfenadine hydroxylation
T7 construct: The commercially available pooled human liver microsomes are used as an enzyme resource; from tissue; host or cells: pooled human liver microsomes
From the text: as §1, §2, §3, §4

Metabolic stability test = type: in vitro ADME; conditions: human liver microsomes, 37° C., 30 minutes, NADPH
Experimental: Using a commercially available pooled human liver microsomes, a compound of the present invention was reacted for a constant time, a remaining rate was calculated by comparing a reacted sample and an unreacted sample, thereby, a degree of metabolism in liver was assessed.
A reaction was performed (oxidative reaction) at 37° C. for 0 minute or 30 minutes in the presence of 1 mmol/L NADPH in 0.2 mL of a buffer (60 mmol/L Tris-HCl pH 7.4, 150 mmol/L potassium chloride, 10 mmol/L magnesium chloride) containing 0.5 mg protein/mL of human liver microsomes. After the reaction, 50 μL of the reaction solution was added to 100 μL of a methanol/acetonltrile=1/1 (v/v), mixed and centrifuged at 3000 rpm for 15 minutes. The compound of the present invention in the supernatant was quantified by LC/MS/MS or solid phase extraction (SPE)/MS, and a remaining amount of the compound of the present invention after the reaction area calculated, letting a compound amount at 0 minute reaction time to be 100%.

[3] = JP 1st fluid, pH 1.2, simulated gastric fluid, read-out: JP1
[4] = JP 2nd fluid B, pH 6.8, aqueous buffer, read-out: JP2_μM

T6 sequence (P56817 46-501): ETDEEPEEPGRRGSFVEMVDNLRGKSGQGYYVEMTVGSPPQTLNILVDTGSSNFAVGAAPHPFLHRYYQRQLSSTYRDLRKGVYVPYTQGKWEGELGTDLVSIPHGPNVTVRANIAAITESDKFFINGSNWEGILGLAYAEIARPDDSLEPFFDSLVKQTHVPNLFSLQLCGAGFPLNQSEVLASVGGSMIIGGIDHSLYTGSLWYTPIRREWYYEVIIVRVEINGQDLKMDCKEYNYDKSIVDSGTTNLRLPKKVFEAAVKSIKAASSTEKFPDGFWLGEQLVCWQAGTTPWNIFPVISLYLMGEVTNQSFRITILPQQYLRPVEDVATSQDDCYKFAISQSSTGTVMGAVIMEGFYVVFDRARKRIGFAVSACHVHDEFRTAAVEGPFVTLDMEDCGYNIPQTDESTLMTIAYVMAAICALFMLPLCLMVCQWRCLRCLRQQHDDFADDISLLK
T1 sequence (P11712 whole entry): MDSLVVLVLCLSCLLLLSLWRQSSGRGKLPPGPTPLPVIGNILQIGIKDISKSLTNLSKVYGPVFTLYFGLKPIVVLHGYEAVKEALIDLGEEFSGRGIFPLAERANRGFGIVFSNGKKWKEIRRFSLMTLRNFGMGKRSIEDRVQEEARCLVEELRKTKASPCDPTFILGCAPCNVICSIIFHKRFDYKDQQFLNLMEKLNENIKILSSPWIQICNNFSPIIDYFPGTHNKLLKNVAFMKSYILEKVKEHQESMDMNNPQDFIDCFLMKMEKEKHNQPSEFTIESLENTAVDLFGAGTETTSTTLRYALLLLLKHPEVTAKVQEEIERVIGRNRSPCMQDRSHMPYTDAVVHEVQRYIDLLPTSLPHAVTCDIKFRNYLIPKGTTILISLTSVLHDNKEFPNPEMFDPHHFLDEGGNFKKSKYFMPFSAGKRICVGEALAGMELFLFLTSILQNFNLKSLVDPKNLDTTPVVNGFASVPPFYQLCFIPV
T7 sequence (P08684 whole entry): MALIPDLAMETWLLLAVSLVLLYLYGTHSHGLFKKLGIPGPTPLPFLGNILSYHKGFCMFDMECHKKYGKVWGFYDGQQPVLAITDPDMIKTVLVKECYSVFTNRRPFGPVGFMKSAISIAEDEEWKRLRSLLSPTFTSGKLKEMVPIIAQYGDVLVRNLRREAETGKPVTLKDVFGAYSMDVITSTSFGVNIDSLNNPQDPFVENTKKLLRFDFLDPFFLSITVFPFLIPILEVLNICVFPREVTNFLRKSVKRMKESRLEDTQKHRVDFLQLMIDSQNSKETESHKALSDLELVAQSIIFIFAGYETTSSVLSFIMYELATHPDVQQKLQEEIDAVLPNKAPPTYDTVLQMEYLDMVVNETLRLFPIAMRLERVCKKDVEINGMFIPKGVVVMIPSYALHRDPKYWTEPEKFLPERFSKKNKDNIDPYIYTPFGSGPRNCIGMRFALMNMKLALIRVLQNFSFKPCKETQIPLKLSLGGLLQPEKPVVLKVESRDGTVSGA
T3 sequence (P10635 whole entry): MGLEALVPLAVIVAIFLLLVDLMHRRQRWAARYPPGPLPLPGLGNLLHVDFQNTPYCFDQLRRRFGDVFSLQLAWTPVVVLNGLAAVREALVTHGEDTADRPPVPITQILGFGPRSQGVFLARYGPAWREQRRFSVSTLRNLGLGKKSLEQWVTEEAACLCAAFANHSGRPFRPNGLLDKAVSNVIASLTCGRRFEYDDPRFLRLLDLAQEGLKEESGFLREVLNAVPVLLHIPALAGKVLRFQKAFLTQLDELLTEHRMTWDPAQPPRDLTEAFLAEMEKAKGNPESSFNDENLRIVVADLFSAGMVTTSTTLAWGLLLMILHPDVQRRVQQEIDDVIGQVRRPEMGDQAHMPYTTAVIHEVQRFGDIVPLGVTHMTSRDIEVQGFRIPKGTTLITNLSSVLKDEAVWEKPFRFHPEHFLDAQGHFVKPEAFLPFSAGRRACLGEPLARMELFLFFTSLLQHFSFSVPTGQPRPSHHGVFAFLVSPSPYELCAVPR
T4 sequence (P33261 whole entry): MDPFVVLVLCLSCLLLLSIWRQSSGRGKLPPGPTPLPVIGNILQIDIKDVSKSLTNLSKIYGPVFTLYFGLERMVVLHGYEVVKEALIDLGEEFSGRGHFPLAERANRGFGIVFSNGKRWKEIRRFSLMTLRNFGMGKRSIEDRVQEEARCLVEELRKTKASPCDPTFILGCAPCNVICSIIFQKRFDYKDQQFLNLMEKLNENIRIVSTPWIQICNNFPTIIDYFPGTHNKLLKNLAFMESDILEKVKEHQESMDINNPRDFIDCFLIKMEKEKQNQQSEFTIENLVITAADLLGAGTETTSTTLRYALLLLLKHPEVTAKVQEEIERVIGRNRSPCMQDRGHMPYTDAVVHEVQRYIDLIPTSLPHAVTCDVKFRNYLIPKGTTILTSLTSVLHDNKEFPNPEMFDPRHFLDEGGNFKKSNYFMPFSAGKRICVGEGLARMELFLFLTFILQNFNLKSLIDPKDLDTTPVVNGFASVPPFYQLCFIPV
T2 sequence (Q12809 whole entry): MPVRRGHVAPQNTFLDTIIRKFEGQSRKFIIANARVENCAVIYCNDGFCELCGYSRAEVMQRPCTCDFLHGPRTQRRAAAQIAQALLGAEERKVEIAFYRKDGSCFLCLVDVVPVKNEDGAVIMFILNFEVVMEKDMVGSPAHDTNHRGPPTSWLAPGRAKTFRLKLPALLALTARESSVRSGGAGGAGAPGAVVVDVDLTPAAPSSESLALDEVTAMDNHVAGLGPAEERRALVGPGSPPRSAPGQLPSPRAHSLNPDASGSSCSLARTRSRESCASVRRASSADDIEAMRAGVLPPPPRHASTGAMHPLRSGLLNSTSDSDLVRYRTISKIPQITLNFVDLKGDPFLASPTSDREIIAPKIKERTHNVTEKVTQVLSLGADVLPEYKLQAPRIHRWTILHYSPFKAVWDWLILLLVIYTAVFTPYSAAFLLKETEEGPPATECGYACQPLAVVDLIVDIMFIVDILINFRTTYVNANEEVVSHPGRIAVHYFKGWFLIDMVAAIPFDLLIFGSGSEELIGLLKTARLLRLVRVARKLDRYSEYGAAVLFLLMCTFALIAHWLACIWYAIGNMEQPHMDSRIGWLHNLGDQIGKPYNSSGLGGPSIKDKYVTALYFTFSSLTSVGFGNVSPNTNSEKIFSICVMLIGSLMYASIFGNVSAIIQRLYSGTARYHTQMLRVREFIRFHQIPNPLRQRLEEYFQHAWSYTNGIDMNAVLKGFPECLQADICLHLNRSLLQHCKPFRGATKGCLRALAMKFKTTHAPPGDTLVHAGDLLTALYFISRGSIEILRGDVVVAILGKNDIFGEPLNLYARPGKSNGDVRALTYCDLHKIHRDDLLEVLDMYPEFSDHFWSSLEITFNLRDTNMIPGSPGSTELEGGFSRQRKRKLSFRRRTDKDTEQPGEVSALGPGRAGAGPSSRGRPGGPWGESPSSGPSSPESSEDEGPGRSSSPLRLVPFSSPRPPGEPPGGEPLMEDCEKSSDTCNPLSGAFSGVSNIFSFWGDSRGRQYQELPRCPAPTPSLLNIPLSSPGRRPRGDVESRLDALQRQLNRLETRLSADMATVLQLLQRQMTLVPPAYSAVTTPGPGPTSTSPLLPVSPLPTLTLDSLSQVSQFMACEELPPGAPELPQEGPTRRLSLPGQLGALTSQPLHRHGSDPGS

| Structure (SMILES) | IC50 [1] [µM] | IC50 (CYP2C9) [µM] | hERG_3 uM_% [2] [%] | solubility kinetic at 1 h (Solubility test; [3]) [µM] | solubility kinetic at 16 h (Solubility test; read-out: JP2_μM) [µM] | IC50 (CYP2D6) [µM] | IC50 (CYP2C19) [µM] | IC50 (CYP1A2) [µM] | IC50 (Recombinant human BACE1) [µM] | IC50 (CYP3A4) [µM] | remaining % (Metabolic stability test) [%] | solubility kinetic at 1 h (Solubility test; [4]) [µM] |
| --- | --- | --- | --- | --- | --- | --- | --- | --- | --- | --- | --- | --- |
| COCC(F)(F)[C@H]1OC(N)=N[C@](C)(c2cc(NC(=O)c3ccc(C#N)cn3)ccc2F)[C@H]1F [Compound I-78] | 0.0067 | ≥ 20 | 39.6 | > 50 | >50 | ≥ 10 | ≥ 20 | ≥ 20 | 0.00735 | ≥ 10 |  |  |
| C[C@H]1SC(N)=N[C@](C)(c2cccc(NC(=O)c3ccc(C#N)cn3)c2)[C@H]1F [Compound I-102] | 0.0016 | ≥ 20 |  | > 50 | >50.0 | ≥ 20 | ≥ 20 | ≥ 20 | 0.0234 | ≥ 20 | 78.1 |  |
| Cc1cc(C#N)cnc1C(=O)Nc1cccc([C@@]2(C)N=C(N)S[C@H](C)[C@@H]2F)c1 [Compound I-105] | 0.00074 | ≥ 20 |  | 47.3 (≈ 18.8 µg/mL) |  | ≥ 20 | ≥ 20 | ≥ 20 | 0.0305 | ≥ 20 | 56.8 | > 50 |
| C[C@H]1SC(N)=N[C@](C)(c2cccc(NC(=O)c3ccc(OCF)cn3)c2)[C@H]1F [Compound I-107] | 0.00042 | ≥ 10 |  | 33.5 (≈ 13.6 µg/mL) |  | ≥ 20 | ≥ 20 | ≥ 20 | 0.0235 | ≥ 20 | 64.2 | > 50 |
| C[C@H]1SC(N)=N[C@](C)(c2cc(NC(=O)c3ncc(C#N)cc3F)ccc2F)[C@H]1F [Compound I-110] | 0.0011 | ≥ 10 |  | 42.1 (≈ 17.7 µg/mL) |  | ≥ 10 | ≥ 20 | ≥ 20 | 0.0225 | ≥ 20 | 81.1 | > 50 |
| [2H]C([2H])([2H])Oc1cnc(C(=O)Nc2cccc([C@@]3(C)N=C(N)S[C@H](C)[C@@H]3F)c2)cn1 [Compound I-114] | 0.0051 | ≥ 10 |  | > 50 | >50.0 | ≥ 20 | ≥ 20 | ≥ 20 | 0.0415 | ≥ 20 | 80.5 |  |
| C[C@H]1SC(N)=N[C@](C)(c2cccc(NC(=O)c3ccc(F)cn3)c2)[C@H]1F [Compound I-115] | 0.0072 | ≥ 20 |  | > 50 | >50.0 | ≥ 20 | ≥ 20 | ≥ 10 | 0.0343 | ≥ 20 | 78.9 |  |

— patent publication US20170073337A1, “DIHYDROTHIAZINE AND DIHYDROOXAZINE DERIVATIVES HAVING BACE1 INHIBITORY ACTIVITY” (Shionogi & Co., Ltd., priority 2014, published 2017)
